Series [1] is described as follows: microbe, parasite or virus in culture. The settings on record: Mycobacterium tuberculosis. It is filed as functional.
A short description of series [2]: Luminescence Cell-Based Dose Retest to Confirm Inhibitors of Cancer Stem Cells. [Related pubchem assays (depositor defined):AID2717, AID2721]. It is filed as functional. The settings on record: Homo sapiens.
A further series concerns the target T1, Bcl-2-related protein A1 (Mus musculus, UniProt Q07440).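 Also: confirmatory dose–response counterscreen on Bfl-1, used to check hits from a UBC13 polyubiquitin inhibitor campaign.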
T1 sequence (Q07440 whole entry): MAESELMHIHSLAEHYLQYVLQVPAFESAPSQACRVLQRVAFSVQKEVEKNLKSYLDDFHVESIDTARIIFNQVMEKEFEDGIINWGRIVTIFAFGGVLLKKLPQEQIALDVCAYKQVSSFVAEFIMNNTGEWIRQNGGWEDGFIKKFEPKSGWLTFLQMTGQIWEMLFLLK
It is filed as functional.

Series [3] addresses T2, Ubiquitin-conjugating enzyme E2 N (Homo sapiens, UniProt P61088).
T2 sequence (P61088 whole entry): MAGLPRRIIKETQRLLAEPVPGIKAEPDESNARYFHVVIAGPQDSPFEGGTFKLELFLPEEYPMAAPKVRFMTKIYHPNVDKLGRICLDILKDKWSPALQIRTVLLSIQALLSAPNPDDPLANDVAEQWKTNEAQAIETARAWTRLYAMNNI
The class given is functional.

In series [4] the target is T2, Ubiquitin-conjugating enzyme E2 N. The class given is functional. The source holds these as a separate data set.
Another series deals with INS1. The series can be described thus: beta cell apoptosis inhibitors, cytokine rescue, dose response, luminescence, retest (AID 449756).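 Also: cell death triggered by IL-1 beta plus TNF-alpha plus IFN-gamma mixture; protective hits raise ATP signal compared with cytokine alone wells.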 It is filed as functional, cell-based. The settings on record: Rattus norvegicus.
The target in series [5] is T3, Kappa-type opioid receptor (Homo sapiens, UniProt P41145). The experiment in a line: KOR agonist analogs, arrestin-GFP redistribution, SAR follow-up, imaging, image-based, set 3 (AID 488833). The class given is functional.
T3 sequence (P41145 whole entry): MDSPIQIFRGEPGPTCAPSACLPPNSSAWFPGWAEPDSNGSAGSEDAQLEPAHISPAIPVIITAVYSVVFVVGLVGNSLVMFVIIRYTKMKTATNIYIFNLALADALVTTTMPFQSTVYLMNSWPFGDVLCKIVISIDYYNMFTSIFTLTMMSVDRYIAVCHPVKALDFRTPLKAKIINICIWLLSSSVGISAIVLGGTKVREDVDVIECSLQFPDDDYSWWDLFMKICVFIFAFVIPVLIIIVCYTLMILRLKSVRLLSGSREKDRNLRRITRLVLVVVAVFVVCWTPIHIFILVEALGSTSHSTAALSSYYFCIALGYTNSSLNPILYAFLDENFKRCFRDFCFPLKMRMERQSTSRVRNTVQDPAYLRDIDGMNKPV
A further series addresses Mu-type opioid receptor (Homo sapiens, UniProt P35372). The series can be described thus: SAR Analysis of Agonists of the MOR Receptor using an Image-Based Assay - Set 3. [Related pubchem assays (depositor defined):AID1777, AID1785, AID1786, AID1966, AID2133, AID2136, AID2284, AID2285, AID2352]. The class given is functional.
The target in series [6] is Delta-type opioid receptor (Homo sapiens, UniProt P41143). The experiment in a line: SAR Analysis of Agonists of the DOR Receptor using an Image-Based Assay - Set 3. [Related pubchem assays (depositor defined):AID1777, AID1786]. It is filed as functional.
Delta-type opioid receptor, sequence (P41143 whole entry): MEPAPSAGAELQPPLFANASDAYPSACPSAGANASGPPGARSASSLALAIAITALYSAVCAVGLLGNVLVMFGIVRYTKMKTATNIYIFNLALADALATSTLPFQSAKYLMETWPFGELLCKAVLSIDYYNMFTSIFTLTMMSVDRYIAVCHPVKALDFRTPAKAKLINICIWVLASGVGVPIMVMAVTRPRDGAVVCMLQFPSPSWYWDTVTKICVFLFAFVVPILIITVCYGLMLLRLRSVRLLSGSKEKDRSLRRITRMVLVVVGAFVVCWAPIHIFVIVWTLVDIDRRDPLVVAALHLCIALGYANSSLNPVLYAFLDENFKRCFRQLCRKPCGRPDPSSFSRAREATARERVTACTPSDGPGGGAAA
In series [7] the target is T3, Kappa-type opioid receptor. The experiment in a line: SAR analysis of small molecule agonists of the kappa opioid receptor via a luminescent beta-arrestin assay - Set 3. [Related pubchem assays (depositor defined):AID1777, AID1785, AID1786, AID1966, AID2133, AID2136, AID2284, AID2500]. It is filed as functional.
The target of series [8] is Peroxisome proliferator-activated receptor gamma/Nuclear receptor coactivator 1 (Homo sapiens, UniProt P37231). The series can be described thus: TR-FRET dose response biochemical High Throughput Screening assay for agonists of the steroid receptor coactivator 1 (SRC-1) recruitment by the peroxisome proliferator-activated receptor gamma (PPAR gamma): non-selective agonists. [Related pubchem assays (depositor defined):AID1300, AID1808, AID504735, AID631]. The class given is protein assay. For orientation: In TR-FRET formats the signal depends on donor and acceptor labels being close together.
Peroxisome proliferator-activated receptor gamma/Nuclear receptor coactivator 1, sequence (P37231 whole entry): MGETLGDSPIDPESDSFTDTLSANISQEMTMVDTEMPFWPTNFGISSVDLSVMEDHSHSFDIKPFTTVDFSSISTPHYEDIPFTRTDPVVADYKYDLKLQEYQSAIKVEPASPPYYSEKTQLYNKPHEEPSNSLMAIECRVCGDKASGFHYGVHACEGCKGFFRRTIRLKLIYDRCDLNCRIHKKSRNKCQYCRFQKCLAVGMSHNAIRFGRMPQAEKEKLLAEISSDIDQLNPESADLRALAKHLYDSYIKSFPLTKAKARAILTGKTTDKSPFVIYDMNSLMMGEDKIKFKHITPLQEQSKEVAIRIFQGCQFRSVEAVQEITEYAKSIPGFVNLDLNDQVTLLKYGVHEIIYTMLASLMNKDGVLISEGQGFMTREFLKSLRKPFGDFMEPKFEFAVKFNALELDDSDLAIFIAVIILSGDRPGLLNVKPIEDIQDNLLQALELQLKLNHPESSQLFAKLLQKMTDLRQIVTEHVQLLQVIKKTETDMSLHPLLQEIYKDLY
Peroxisome proliferator-activated receptor gamma/Nuclear receptor coactivator 1, sequence (Q15788 whole entry, further chain): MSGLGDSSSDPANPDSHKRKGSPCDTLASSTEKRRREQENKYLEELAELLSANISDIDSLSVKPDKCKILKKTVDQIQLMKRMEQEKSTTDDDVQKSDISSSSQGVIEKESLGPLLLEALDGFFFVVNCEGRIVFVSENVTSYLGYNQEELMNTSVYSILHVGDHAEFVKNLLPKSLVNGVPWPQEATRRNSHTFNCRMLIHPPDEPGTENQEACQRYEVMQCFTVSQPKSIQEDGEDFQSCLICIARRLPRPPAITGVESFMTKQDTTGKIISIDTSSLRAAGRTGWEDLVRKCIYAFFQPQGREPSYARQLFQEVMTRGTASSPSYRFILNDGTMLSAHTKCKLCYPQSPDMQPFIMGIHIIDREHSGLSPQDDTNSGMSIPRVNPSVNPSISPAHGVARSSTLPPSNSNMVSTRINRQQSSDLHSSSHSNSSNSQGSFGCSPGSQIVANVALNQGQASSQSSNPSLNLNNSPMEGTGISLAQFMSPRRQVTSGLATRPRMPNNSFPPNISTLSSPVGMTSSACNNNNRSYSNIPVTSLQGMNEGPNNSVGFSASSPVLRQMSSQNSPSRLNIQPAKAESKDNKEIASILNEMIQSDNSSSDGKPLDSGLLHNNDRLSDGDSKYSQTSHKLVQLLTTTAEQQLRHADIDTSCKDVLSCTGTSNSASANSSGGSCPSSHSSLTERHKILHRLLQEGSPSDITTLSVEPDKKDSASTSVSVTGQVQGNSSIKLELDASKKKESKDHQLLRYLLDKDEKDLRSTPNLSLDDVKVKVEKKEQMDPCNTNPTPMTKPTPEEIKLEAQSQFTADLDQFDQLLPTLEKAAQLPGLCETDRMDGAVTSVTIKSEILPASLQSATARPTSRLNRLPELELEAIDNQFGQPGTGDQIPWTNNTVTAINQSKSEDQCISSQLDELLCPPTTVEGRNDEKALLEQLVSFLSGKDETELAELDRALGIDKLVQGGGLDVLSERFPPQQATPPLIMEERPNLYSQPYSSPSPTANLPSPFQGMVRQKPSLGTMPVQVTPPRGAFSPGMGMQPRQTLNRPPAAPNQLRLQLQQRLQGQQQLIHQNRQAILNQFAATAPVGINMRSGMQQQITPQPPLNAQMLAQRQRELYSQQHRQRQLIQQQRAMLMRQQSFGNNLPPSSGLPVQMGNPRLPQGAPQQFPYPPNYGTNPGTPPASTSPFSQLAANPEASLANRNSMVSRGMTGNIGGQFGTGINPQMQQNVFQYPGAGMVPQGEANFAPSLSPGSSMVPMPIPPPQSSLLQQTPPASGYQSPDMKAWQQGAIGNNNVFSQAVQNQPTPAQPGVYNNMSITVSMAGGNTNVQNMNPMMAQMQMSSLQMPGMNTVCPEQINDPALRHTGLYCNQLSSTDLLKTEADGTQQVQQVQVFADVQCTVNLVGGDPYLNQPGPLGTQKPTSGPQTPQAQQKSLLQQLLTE

Series [9] has as its target Peroxisome proliferator-activated receptor gamma/Nuclear receptor coactivator 3 (Homo sapiens, UniProt P37231). The experiment in a line: TR-FRET dose response biochemical High Throughput Screening assay for agonists of the steroid receptor coactivator 3 (SRC-3) recruitment by the peroxisome proliferator-activated receptor gamma (PPAR gamma): non-selective agonists. [Related pubchem assays: 1301 (Confirmation screen.), 1048 (Primary screen.)]. The class given is functional.

The target in series [10] is Peroxisome proliferator-activated receptor gamma/Nuclear receptor coactivator 2 (Homo sapiens, UniProt P37231). The experiment in a line: TR-FRET dose response biochemical High Throughput Screening assay for agonists of the steroid receptor coactivator 2 (SRC-2) recruitment by the peroxisome proliferator-activated receptor gamma (PPAR gamma): non-selective agonists. [Related pubchem assays: 1297, 1032 ]. It is filed as functional.
Peroxisome proliferator-activated receptor gamma/Nuclear receptor coactivator 2, sequence (P37231 whole entry): as the sequence (P37231 whole entry) above
Peroxisome proliferator-activated receptor gamma/Nuclear receptor coactivator 2, sequence (Q15596 whole entry, further chain): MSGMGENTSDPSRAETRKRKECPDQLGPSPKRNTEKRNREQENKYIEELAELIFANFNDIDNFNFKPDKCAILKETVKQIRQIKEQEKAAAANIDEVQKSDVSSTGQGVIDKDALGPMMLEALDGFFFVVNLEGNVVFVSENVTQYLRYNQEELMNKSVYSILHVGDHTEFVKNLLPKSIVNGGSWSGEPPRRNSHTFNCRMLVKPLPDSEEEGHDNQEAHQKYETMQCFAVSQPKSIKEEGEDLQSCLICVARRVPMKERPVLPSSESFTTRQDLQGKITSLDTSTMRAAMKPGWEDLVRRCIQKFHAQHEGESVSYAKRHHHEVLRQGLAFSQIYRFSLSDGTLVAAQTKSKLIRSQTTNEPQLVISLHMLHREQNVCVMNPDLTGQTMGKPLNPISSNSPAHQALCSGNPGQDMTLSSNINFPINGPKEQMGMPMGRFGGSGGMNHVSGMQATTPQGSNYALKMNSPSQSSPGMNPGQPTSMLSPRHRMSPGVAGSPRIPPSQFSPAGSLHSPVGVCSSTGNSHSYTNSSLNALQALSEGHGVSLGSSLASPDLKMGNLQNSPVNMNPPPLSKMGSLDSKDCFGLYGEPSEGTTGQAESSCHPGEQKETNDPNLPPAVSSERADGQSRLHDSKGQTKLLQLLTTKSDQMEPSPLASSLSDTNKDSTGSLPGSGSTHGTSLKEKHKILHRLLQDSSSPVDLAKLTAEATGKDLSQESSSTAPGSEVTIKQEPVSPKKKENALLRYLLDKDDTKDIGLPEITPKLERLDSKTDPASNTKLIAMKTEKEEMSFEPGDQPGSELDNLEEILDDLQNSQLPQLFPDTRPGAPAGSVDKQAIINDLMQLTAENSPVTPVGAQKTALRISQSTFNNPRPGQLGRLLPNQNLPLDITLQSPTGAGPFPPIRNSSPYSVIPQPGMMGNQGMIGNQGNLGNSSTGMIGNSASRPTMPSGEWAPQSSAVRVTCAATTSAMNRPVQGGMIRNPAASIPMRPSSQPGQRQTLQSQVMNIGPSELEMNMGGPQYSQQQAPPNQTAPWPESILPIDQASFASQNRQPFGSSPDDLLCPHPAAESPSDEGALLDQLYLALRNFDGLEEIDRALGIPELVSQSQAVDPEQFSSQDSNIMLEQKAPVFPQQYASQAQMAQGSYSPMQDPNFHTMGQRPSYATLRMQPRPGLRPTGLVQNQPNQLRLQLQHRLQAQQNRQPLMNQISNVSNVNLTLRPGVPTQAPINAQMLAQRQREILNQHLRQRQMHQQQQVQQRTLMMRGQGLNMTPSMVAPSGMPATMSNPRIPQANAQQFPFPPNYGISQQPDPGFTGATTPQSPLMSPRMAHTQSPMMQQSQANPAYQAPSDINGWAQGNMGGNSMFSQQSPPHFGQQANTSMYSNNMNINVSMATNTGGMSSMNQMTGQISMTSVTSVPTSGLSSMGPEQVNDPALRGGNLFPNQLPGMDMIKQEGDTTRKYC

The target in a further series is T4, Cytochrome P450 1A2 (Homo sapiens, UniProt P05177).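 Also: PubChem cytochrome P450 panel assay, CYP1A2 panel member.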
T4 sequence (P05177 whole entry): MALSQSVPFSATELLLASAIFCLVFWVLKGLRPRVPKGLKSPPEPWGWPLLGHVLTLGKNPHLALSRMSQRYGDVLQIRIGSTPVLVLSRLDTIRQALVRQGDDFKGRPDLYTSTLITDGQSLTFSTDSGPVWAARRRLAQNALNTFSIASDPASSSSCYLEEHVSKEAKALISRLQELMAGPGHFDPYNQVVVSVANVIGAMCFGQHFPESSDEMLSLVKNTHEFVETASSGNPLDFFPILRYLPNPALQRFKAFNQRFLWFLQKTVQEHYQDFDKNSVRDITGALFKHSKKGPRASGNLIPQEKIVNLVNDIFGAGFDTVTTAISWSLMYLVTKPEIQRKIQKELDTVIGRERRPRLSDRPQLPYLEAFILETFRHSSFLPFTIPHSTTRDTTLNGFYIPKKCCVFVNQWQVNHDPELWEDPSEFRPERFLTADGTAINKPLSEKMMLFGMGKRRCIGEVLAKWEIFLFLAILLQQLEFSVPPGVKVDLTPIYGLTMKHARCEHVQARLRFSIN

A further series concerns the target Cytochrome P450 2C9 (Homo sapiens, UniProt P11712).

Activity calls are given as the source filed them.

Mu-type opioid receptor, sequence (P35372 whole entry): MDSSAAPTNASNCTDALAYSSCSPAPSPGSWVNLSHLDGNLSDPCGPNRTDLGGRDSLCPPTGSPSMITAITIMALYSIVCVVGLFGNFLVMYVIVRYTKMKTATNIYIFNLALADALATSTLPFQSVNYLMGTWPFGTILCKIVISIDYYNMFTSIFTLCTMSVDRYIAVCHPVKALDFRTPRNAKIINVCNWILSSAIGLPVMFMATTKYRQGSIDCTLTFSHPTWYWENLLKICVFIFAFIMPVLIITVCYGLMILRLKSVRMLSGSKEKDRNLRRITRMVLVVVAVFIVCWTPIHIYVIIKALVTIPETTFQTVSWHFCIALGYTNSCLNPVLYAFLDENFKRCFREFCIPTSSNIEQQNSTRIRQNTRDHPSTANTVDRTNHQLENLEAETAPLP

Take `COc1ccc2cc1Oc1ccc(cc1)C[C@H]1c3c(cc(OC)c4c3Oc3c(ccc5c3[C@H](C2)N(C)CC5)O4)CCN1C`: the CC50 in [1] is 6.25 µM (active). Further, the results for the AC50 (in series [2]; with INS1) were 3.56 µM (active) and 8.02 µM (active), respectively. In addition, the IC50 (in general, the concentration that inhibits the measured activity by half) on Bcl-2-related protein A1 is > 20 µM (inactive); in series [3], 16 µM (active); in [4], 12.2 µM (active).
Turning to `FC(F)(F)c1cc(CSc2nnc(-c3ccccn3)n2Cc2ccco2)ccc1Cl`, the 50% effective concentration (EC50) – broadly, the concentration that produces a half-maximal response – in series [5] is 0.456 µM (active); at Mu-type opioid receptor, > 32 µM (inactive); in series [6], > 64 µM (inactive); in [7], 0.504 µM (active).
`Cn1c(=O)cc(SCC(=O)NCCN2CCN(c3ccccc3F)CC2)c2cc(Cl)ccc21`: the results for the EC50 in series [8], in series [9] and in [10] were 33.2 µM (inactive), > 79.4 µM (not active) and 7.9 µM (active), respectively. Moreover, the values for the AC50 on Cytochrome P450 1A2 and at Cytochrome P450 2C9 were 39.8 µM (inconclusive) and “inconclusive”, respectively.
